Measurements: patent US20170029388A1, “Treatment of Neurodegenerative Diseases with Asparagine Endopeptidase (AEP) Inhibitors and Compositions Related Thereto” (INTERCONTINENTAL GREAT BRANDS LLC, priority 2014, published 2017)
Where two headings read alike, the source gives them in different places. Each block holds one compound with its values, some of them ahead of it.

Key:
CYP2C9 = CYP2C9 (Homo sapiens, UniProt P11712); assay: CYP inhibition screening, CYP2C9; type: in vitro ADME
[1] = PAMPA
Caco-2 monolayer = Caco-2 monolayer permeability screen; type: in vitro ADME; conditions: Caco-2
Experimental: To explore the in vitro ADME profiles of the compounds, additional tests were conducted.

CYP2D6 = CYP2D6 (Homo sapiens, UniProt P10635); assay: CYP inhibition screening, CYP2D6; type: in vitro ADME
CYP2D6, sequence (P10635 whole entry): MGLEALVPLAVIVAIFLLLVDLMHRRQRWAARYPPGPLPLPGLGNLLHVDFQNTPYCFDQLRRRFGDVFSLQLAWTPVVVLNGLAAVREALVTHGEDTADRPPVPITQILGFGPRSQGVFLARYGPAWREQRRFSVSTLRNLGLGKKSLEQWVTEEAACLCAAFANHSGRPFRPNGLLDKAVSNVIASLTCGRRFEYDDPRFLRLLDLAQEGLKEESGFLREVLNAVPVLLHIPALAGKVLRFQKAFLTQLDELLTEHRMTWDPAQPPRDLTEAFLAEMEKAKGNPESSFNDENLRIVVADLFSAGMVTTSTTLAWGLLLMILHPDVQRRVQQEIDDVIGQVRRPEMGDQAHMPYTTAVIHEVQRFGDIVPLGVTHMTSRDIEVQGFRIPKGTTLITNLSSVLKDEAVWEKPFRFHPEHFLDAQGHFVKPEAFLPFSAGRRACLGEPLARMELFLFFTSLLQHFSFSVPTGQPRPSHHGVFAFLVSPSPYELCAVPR

[2] = tested on: cleavage of the amyloid precursor protein (APP); assay: OGD in primary cortical neurons, APP cleavage (immunoblot); type: cell-based
Experimental: (§1) A. AEP activity, measured in primary neuronal cultures with 5 μM Cbz-Ala-Ala-Asn-AMC (x-axis denotes neurons were treated with 0.1 μM or 1.0 μM specified compound). B. Caspase activity, measured in primary neuronal cultures with 5 μM Ac-Asp-Glu-Val-Asp-AMC. C. Cathepsin activity, measured in primary neuronal cultures with 5 μM D-Val-Leu-Lys-AMC. D. Inhibition of APP cleavage. Lysates of primary cortical neurons pre-incubated with compounds for 30 min, underwent OGD for 4 hrs, were reperfused for 18 hrs (normoxia neurons remained at normoxic conditions). E. APP can be cleaved in a dose-dependent manner. Lysates of primary cortical neurons pre-incubated with compounds for 30 min, underwent OGD for 4 hrs, were reperfused for 18 hrs (normoxia neurons remained at normoxic conditions).
Depriving cells of oxygen and glucose is a cellular model that is employed to trigger acidosis in cultured cells. The efficacy of the compounds in a cellular model of oxygen-glucose deprivation (OGD) was determined in an effort to mimic the effects of stroke in primary cultured neurons. As a result of depriving neurons of oxygen and glucose-containing medium, AEP activity was doubled (FIG. 7A, ‘DMSO-Norm’ compared to ‘DMSO-OGD’), while Caspase-3 and Cathepsin activities remained relatively unchanged. […] Cleavage of APP is observed in response to only DMSO treatment (FIG. 7D, lane 2), and it appears that upon the treatment of 1 μM of compounds 10, 11, and 12, and just 0.1 μM of compounds 31, 38 and 64, the cleavage was blocked, presumably due to AEP inhibition.
Compounds were pre-incubated with primary culture neurons, DIV13, for 30 min. The medium was exchanged for glucose-free DMEM and neurons were de-gased and incubated at 37° C., 95% N2/5% CO2 for 4 hrs with compounds. The medium was exchanged for DMEM and supplemented with compounds, then neurons were reperfused for 18 hrs under normoxic conditions. The neuronal lysates were prepared for AEP, Caspase-3 and Cathepsin assays. Moreover, immunoblotting analysis was conducted with the neuronal lysates using anti-APP, anti-AEP antibodies.

[3] = Liver microsomal stability, human; conditions: human liver microsomes
CYP1A2 = target: T1, CYP1A2 (Homo sapiens, UniProt P05177); assay: CYP inhibition screening, CYP1A2; type: in vitro ADME
T1 sequence (P05177 1-516): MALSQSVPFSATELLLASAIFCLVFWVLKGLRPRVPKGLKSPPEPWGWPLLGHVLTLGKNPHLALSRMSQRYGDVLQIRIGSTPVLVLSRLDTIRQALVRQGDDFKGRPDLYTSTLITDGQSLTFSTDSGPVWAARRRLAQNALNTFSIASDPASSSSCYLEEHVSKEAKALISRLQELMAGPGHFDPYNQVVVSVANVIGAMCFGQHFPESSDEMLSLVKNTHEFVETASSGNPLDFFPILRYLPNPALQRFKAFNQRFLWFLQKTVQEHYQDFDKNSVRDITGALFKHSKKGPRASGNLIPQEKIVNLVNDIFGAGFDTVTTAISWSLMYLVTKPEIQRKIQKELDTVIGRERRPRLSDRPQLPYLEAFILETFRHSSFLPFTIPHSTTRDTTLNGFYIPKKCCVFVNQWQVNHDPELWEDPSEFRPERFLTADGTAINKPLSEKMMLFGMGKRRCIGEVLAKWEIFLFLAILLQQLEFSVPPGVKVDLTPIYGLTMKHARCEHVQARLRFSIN

AEP = assay: Oxygen-glucose deprivation (OGD) in primary neurons, AEP activity; type: cell-based; conditions: 0.1 μM or 1.0 μM compound
Experimental: as §1
Depriving cells of oxygen and glucose is a cellular model that is employed to trigger acidosis in cultured cells. The efficacy of the compounds in a cellular model of oxygen-glucose deprivation (OGD) was determined in an effort to mimic the effects of stroke in primary cultured neurons. As a result of depriving neurons of oxygen and glucose-containing medium, AEP activity was doubled (FIG. 7A, ‘DMSO-Norm’ compared to ‘DMSO-OGD’), while Caspase-3 and Cathepsin activities remained relatively unchanged. […]

CYP3A = assay: CYP inhibition screening, CYP3A-Testosterone; type: in vitro ADME
CYP3A4 = CYP3A4 (Homo sapiens, UniProt P08684); assay: CYP inhibition screening, CYP3A4-Midazolam; type: in vitro ADME
CYP3A4, sequence (P08684 whole entry): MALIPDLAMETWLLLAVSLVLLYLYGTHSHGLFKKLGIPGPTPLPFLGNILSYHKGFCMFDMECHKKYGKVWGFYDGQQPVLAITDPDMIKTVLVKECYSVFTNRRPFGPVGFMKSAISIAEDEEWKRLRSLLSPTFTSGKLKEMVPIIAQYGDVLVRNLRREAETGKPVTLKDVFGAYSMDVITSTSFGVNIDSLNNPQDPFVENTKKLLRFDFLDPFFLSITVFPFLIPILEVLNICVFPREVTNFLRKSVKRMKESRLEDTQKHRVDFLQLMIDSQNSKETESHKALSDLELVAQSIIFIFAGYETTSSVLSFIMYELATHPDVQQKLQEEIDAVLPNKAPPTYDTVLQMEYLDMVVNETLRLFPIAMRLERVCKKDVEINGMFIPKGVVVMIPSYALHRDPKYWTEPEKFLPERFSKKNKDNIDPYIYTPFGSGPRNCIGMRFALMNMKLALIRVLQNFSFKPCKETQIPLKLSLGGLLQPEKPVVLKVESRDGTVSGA

CYP2C19 = CYP2C19 (Homo sapiens, UniProt P33261); assay: CYP inhibition screening, CYP2C19; type: in vitro ADME
CYP2C19, sequence (P33261 whole entry): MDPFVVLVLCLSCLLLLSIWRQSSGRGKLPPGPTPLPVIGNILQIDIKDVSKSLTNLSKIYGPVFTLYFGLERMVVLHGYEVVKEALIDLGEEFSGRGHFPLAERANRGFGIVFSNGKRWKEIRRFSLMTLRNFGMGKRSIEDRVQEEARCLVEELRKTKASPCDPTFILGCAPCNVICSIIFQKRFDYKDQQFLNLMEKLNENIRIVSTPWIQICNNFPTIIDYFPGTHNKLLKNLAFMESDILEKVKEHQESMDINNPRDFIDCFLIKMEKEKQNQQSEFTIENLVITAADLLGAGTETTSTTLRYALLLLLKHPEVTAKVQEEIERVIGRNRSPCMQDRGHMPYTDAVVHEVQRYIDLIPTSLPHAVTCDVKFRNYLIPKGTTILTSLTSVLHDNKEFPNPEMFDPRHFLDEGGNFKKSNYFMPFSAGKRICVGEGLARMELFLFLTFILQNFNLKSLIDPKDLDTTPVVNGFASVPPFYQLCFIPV

[4] = Liver microsomal stability, mouse; conditions: mouse liver microsomes
Caspase-3 = target: T2, Caspase-3 (Homo sapiens, UniProt P42574); assay: Caspase-3 enzymatic assay (specificity); type: biochemical
T2 construct: purchased Millipore
T2 sequence (P42574 29-175 limits assumed, species assumed): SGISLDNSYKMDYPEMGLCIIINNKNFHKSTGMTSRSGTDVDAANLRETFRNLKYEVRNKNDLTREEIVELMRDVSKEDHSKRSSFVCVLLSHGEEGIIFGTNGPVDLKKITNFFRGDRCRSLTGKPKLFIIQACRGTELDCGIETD
T2 sequence (P42574 176-277 limits assumed, species assumed): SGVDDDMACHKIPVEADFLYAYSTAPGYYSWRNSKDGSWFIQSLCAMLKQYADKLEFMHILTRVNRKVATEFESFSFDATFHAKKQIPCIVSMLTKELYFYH
Experimental: (§2) Purified recombinant enzyme was incubated with various concentrations of inhibitor in appropriate assay buffers in the presence of increasing concentrations of inhibitor. The formation of fluorescent product was monitored in duplicate reactions and the data was fit to appropriate equations to calculate the IC50 values.
(§3) To identify small-molecule inhibitors of AEP, a high-throughput screen was designed in conjunction with the Emory Chemical Biology Discovery Center. The screen incorporated mouse kidney lysates to assay a 54,384 compound library. […] Additional structural analysis and grouping allowed the compounds to be sorted into 8 distinct backbone families. […] The specificity of the compounds was also determined using four major cysteine proteases (FIG. 2).
(§4) Caspase-3 and 8 —The enzyme was pre-incubated with inhibitor in assay buffer (100 mM HEPES pH 7.4, 0.1% CHAPS, 10% Sucrose) for 10 min at 37° C. The reaction was initiated upon addition of 25 μM substrate (Ac-Asp-Glu-Val-Asp-AMC (Bachem)).

HepG2 cells = assay: COMET assay and micronucleus assay (genotoxicity); type: cell-based, human; conditions: 50 μM, 24 hr
Experimental: A. MTT assay, in which 50 μM of each compound was incubated with HepG2 cells for 24 hrs. The compound-containing medium was removed and the cells were incubated with MTT solution for 3 hrs. Subsequently, the MTT solution was replaced with DMSO and the 0D570 was observed. B. LDH assay, in which 50 μM of each compound was incubated with primary culture neurons for 48 hrs. The media was then collected and incubated with LDH assay substrate for 30 min at room temp, in the dark. After the reactions were quenched, the 0D490 was observed. C. COMET assay results; 50 μM compound was incubated with HepG2 cells for 24 hrs. The cells were then added low-melt agarose and plated on microscope slides. The cells were lysed and the DNA was denatured and subject to electrophoresis. Finally, the DNA was stained with SYBR Green and 100 nuclei were counted for each sample, in each experiment; the experiment was performed in triplicate. […] Cells were fixed and nuclei were stained with DAPI and 1,000 cells were counted per sample; three independent experiments were performed.
In an effort to characterize the toxicity of the compounds, an MTT assay was performed using human hepatocellular carcinoma, HepG2 cells and primary culture neurons to monitor the cell viability. […] The cytotoxicity of the compounds in primary neuronal cultures was determined using an LDH assay to measure cytolysis (FIG. 4B). […]

Cathepsin-L = Cathepsin-L (Homo sapiens, UniProt P07711); assay: Cathepsin-L enzymatic assay (specificity); type: biochemical
Cathepsin-L, sequence (P07711 114-333, species assumed): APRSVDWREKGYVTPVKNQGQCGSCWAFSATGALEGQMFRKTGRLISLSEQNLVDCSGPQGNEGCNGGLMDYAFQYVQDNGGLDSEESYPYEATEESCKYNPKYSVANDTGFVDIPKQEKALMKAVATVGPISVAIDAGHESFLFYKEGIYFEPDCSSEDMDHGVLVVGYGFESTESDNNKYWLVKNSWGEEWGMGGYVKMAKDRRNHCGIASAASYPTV
Experimental: as §2, §3
Cathepsin-L—100 nM enzyme was pre-incubated with inhibitor in assay buffer (100 mM Sodium Acetate pH 5.5, 1 mM EDTA) for 10 min at 37° C. The reaction was initiated upon addition of 25 μM substrate (D-Val-Leu-Lys-AMC (Bachem)).

Caspase-8 = target: T3, Caspase-8 (Homo sapiens, UniProt Q14790); assay: Caspase-8 enzymatic assay (specificity); type: biochemical
T3 construct: purchased Millipore
T3 sequence (Q14790 217-374 limits assumed, species assumed): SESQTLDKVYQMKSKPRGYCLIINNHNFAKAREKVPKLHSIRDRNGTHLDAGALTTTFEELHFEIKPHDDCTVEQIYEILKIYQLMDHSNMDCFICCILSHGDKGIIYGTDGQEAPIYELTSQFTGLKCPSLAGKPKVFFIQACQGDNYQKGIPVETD
T3 sequence (Q14790 385-479 limits assumed, species assumed): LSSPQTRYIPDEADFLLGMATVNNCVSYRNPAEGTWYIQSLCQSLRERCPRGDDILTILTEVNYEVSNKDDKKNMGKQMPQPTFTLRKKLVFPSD
Experimental: as §2, §3, §4

Cathepsin-S = target: T4, Cathepsin-S (Homo sapiens, UniProt P25774); assay: Cathepsin-S enzymatic assay (specificity); type: biochemical
T4 construct: purchased Athens Research and Technology
T4 sequence (P25774 115-331): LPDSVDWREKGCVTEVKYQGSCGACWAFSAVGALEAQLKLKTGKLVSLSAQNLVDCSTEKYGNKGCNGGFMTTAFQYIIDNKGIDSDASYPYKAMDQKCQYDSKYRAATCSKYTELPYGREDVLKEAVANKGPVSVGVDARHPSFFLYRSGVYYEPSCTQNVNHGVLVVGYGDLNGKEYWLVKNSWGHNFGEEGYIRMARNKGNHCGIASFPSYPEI
Experimental: as §2, §3
Cathepsin-S—100 nM enzyme was pre-incubated with inhibitor in assay buffer (100 mM NaH2PO4 pH 6.5, 100 mM NaCl) for 10 min at 37° C. The reaction was initiated upon addition of 25 μM substrate (Boc-Val-Leu-Lys-AMC (Bachem)).

[5] = human, microsomes
[6] = mouse, microsomes

CYP2C9, sequence (P11712 whole entry): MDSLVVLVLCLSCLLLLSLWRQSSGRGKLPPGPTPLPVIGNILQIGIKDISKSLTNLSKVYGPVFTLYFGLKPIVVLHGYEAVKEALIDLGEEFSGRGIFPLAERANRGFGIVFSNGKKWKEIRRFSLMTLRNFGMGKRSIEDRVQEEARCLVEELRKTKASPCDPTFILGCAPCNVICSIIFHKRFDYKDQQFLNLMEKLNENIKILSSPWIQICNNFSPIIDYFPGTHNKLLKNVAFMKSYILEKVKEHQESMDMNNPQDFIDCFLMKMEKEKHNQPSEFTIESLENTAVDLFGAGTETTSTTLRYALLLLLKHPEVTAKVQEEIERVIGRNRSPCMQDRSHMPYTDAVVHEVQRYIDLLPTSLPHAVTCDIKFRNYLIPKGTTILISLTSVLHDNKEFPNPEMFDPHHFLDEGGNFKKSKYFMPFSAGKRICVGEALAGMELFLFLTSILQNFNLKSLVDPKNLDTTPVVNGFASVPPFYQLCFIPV

Compound: Cc1cccc(NCc2ccc(O)c3ncccc23)c1C [Compound 12]
CYP inhibition, CYP2C9 (CYP2C9; test concentration 3 μM): 4.3% | CYP inhibition, CYP2C9 (CYP2C9; test concentration 10 μM): −2.7% | Pe [1]: <LLOQ | A -> B Papp (Caco-2 monolayer): 1.4 10^−6 cm · s^−1 | B -> A Papp (Caco-2 monolayer): 3.7 10^−6 cm · s^−1 | RE (Caco-2 monolayer): 2.7 | CYP inhibition, CYP2D6 (CYP2D6; test concentration 3 μM): 2.9% | CYP inhibition, CYP2D6 (CYP2D6; test concentration 10 μM): −2.6% | dose dependence of APP cleavage after OGD [2]: dose-dependent decrease | cleavage of APP after OGD ([2]; 1 μM compound): blocked | Mean Remaining Parent (NADPH-free) [3]: 1% | Mean Remaining Parent (with NADPH) ([3]; 30 min of incubation): 1% | CYP inhibition, CYP1A2 (CYP1A2; test concentration 3 μM): 28.4% | CYP inhibition, CYP1A2 (CYP1A2; test concentration 10 μM): 44.5% | AEP activity in OGD-treated neurons (AEP): slight decrease | CYP inhibition, CYP3A-Testosterone (CYP3A; test concentration 3 μM): 14.2% | CYP inhibition, CYP3A-Testosterone (CYP3A; test concentration 10 μM): 27.6% | CYP inhibition, CYP3A4-Midazolam (CYP3A4; test concentration 3 μM): −2.5% | CYP inhibition, CYP3A4-Midazolam (CYP3A4; test concentration 10 μM): −2.5% | CYP inhibition, CYP2C19 (CYP2C19; test concentration 3 μM): 13.4% | CYP inhibition, CYP2C19 (CYP2C19; test concentration 10 μM): 29.4% | Mean Remaining Parent (NADPH-free) [4]: 0% | Mean Remaining Parent (with NADPH) [4]: 1%

IC50 (Caspase-3): > 100 µM | IC50 (Cathepsin-L): > 100 µM | IC50 (Caspase-8): > 100 µM | IC50 (Cathepsin-S): > 100 µM
Compound: CN(C)c1ccc(N2C(=O)C=CC2=O)cc1 [Compound 22]
genotoxicity (COMET and micronucleus assays) (HepG2 cells): the only test compound to show genotoxicity

Mean Remaining Parent (with NADPH) ([5]; 0.5 h): 96% | Mean Remaining Parent (NADPH-free) ([5]; 30 min): 104% | Mean Remaining Parent (NADPH-free) [6]: 100% | Mean Remaining Parent (with NADPH) [6]: 91%
Compound: CC(=O)CC(c1ccccc1)c1c(O)c2ccccc2oc1=O (centres unmarked) [Warfarin]
